Measurements as given in ChEMBL document CHEMBL3885861, “Open TG-GATES”.

Species on record: Rattus norvegicus
Experiment: Open TG-GATES - Regimen: Single
Type: toxicity, organism-based, Sprague-Dawley
Set-up: regimen Single, gender Male, age 6 weeks
Conditions: in vivo, po, 150 mg/kg, route gavage, dose level High; for APTT / Bas / Eos / Fbg / Hb / Ht / Lym / MCHC / MCV / Mono / Neu / PT / Plat / RBC / Ret / WBC: tissue Blood; for KIDNEY_L / KIDNEY_R / KIDNEY_TOTAL: tissue Kidney; for LIVER: tissue Liver; for ALP / ALT / AST / BUN / CRE / Ca / Cl / DBIL / GLC / IP / K / LDH / Na / PL / RALB / TBIL / TC / TG / TP / gamma-GTP: tissue Plasma

C1CCC(C(CC2CCCCN2)C2CCCCC2)CC1 (centres undefined) [PERHEXILINE]
TERMINAL_BW (3 h): 215.1 g | APTT (3 h): 21.8 s | Bas (3 h): 0% | Eos (3 h): 0.8% | Fbg (3 h): 336.6 mg/dL | Hb (3 h): 13.3 g/dL | Ht (3 h): 40.3% | Lym (3 h): 71.2% | MCHC (3 h): 33.1% | MCV (3 h): 65.5 fL | Mono (3 h): 1.6% | Neu (3 h): 24.8% | PT (3 h): 16 s | Plat (3 h): 129.8 x10_4/uL | RBC (3 h): 616 x10_4/ul | Ret (3 h): 7.7% | WBC (3 h): 64 x10_2/uL | KIDNEY_L (3 h): 0.9 g | KIDNEY_R (3 h): 1 g | KIDNEY_TOTAL (3 h): 1.9 g | LIVER (3 h): 9.3 g | ALP (3 h): 1714.6 IU/L | ALT (3 h): 57.2 IU/L | AST (3 h): 80 IU/L | BUN (3 h): 11 mg/dL | CRE (3 h): 0.1 mg/dL | Ca (3 h): 10.6 mg/dL | Cl (3 h): 104.8 meq/L | DBIL (3 h): 0.002 mg/dL | GLC (3 h): 173.6 mg/dL | IP (3 h): 9.4 mg/dL | K (3 h): 3.8 meq/L | LDH (3 h): 215.2 IU/L | Na (3 h): 140.2 meq/L | PL (3 h): 133.2 mg/dL | RALB (3 h): 3.2 g/dL | TBIL (3 h): 0.016 mg/dL | TC (3 h): 73.2 mg/dL | TG (3 h): 46.8 mg/dL | TP (3 h): 5.8 g/dL | gamma-GTP (3 h): 0.8 IU/L | TERMINAL_BW (6 h): 213.5 g | APTT (6 h): 22.8 s | Bas (6 h): 0% | Eos (6 h): 1% | Fbg (6 h): 336.8 mg/dL | Hb (6 h): 13.1 g/dL | Ht (6 h): 39.1% | Lym (6 h): 68.8% | MCHC (6 h): 33.5% | MCV (6 h): 62.8 fL | Mono (6 h): 1.8% | Neu (6 h): 27.2% | PT (6 h): 15.2 s | Plat (6 h): 142.9 x10_4/uL | RBC (6 h): 622.4 x10_4/ul | Ret (6 h): 7.9% | WBC (6 h): 59.6 x10_2/uL | KIDNEY_L (6 h): 1 g | KIDNEY_R (6 h): 1 g | KIDNEY_TOTAL (6 h): 1.9 g | LIVER (6 h): 9.1 g | ALP (6 h): 1591 IU/L | ALT (6 h): 51.8 IU/L | AST (6 h): 75.8 IU/L | BUN (6 h): 10.6 mg/dL | CRE (6 h): 0.1 mg/dL | Ca (6 h): 10.6 mg/dL | Cl (6 h): 106 meq/L | DBIL (6 h): 0.002 mg/dL | GLC (6 h): 172.4 mg/dL | IP (6 h): 9.2 mg/dL | K (6 h): 4.2 meq/L | LDH (6 h): 238.8 IU/L | Na (6 h): 140.2 meq/L | PL (6 h): 148.6 mg/dL | RALB (6 h): 3.2 g/dL | TBIL (6 h): 0.018 mg/dL | TC (6 h): 75 mg/dL | TG (6 h): 82 mg/dL | TP (6 h): 5.7 g/dL | gamma-GTP (6 h): 1 IU/L | TERMINAL_BW (9 h): 220.6 g | APTT (9 h): 21.1 s | Bas (9 h): 0% | Eos (9 h): 1% | Fbg (9 h): 326.4 mg/dL | Hb (9 h): 13.2 g/dL | Ht (9 h): 39.7% | Lym (9 h): 66.8% | MCHC (9 h): 33.2% | MCV (9 h): 63.9 fL | Mono (9 h): 1.6% | Neu (9 h): 30% | PT (9 h): 15.5 s | Plat (9 h): 128.9 x10_4/uL | RBC (9 h): 622.8 x10_4/ul | Ret (9 h): 7.7% | WBC (9 h): 64.2 x10_2/uL | KIDNEY_L (9 h): 1.1 g | KIDNEY_R (9 h): 1.1 g | KIDNEY_TOTAL (9 h): 2.1 g | LIVER (9 h): 9.7 g | ALP (9 h): 1539.6 IU/L | ALT (9 h): 39 IU/L | AST (9 h): 66.6 IU/L | BUN (9 h): 11.4 mg/dL | CRE (9 h): 0.1 mg/dL | Ca (9 h): 10.9 mg/dL | Cl (9 h): 105.2 meq/L | DBIL (9 h): 0.004 mg/dL | GLC (9 h): 171.2 mg/dL | IP (9 h): 9.6 mg/dL | K (9 h): 4 meq/L | LDH (9 h): 217.8 IU/L | Na (9 h): 138.8 meq/L | PL (9 h): 121 mg/dL | RALB (9 h): 3 g/dL | TBIL (9 h): 0.014 mg/dL | TC (9 h): 62 mg/dL | TG (9 h): 48.2 mg/dL | TP (9 h): 5.6 g/dL | gamma-GTP (9 h): 1 IU/L | TERMINAL_BW (24 h): 208.6 g | APTT (24 h): 21.2 s | Bas (24 h): 0% | Eos (24 h): 1% | Fbg (24 h): 327.6 mg/dL | Hb (24 h): 13.6 g/dL | Ht (24 h): 40.4% | Lym (24 h): 82% | MCHC (24 h): 33.6% | MCV (24 h): 62.7 fL | Mono (24 h): 1.2% | Neu (24 h): 15.4% | PT (24 h): 16.1 s | Plat (24 h): 132.8 x10_4/uL | RBC (24 h): 645.6 x10_4/ul | Ret (24 h): 6% | WBC (24 h): 65.9 x10_2/uL | KIDNEY_L (24 h): 0.9 g | KIDNEY_R (24 h): 1 g | KIDNEY_TOTAL (24 h): 1.9 g | LIVER (24 h): 9.4 g | ALP (24 h): 1840.2 IU/L | ALT (24 h): 50 IU/L | AST (24 h): 71.6 IU/L | BUN (24 h): 15.4 mg/dL | CRE (24 h): 0.1 mg/dL | Ca (24 h): 10.7 mg/dL | Cl (24 h): 106.8 meq/L | DBIL (24 h): 0 mg/dL | GLC (24 h): 170.2 mg/dL | IP (24 h): 7.9 mg/dL | K (24 h): 4.2 meq/L | LDH (24 h): 256.2 IU/L | Na (24 h): 141.8 meq/L | PL (24 h): 149 mg/dL | RALB (24 h): 3.2 g/dL | TBIL (24 h): 0.012 mg/dL | TC (24 h): 79.6 mg/dL | TG (24 h): 78 mg/dL | TP (24 h): 5.8 g/dL | gamma-GTP (24 h): 1 IU/L
